Entries after “also recorded” stand apart in the source; their conditions may differ. Each block holds one molecule with its values, some of them ahead of it.
Columns and labels:
islets [1] = test: Viability of isolated islets under hypoxia with CPO; format: cell-based, Sprague Dawley Rats; conditions: 5 mg/ml or 10 mg/ml in culture media or culture media/PBS mixture; p<0.01 relative to 0% O2 without POGS
Experimental: (§1) Islets were obtained from male Sprague Dawley Rats (300-350 g) and cultured in vitro overnight at 37° C., 5% CO2. Supplemented CMRL media (Gibco) incubated at 0% O2 overnight in a hypoxia chamber (XVivo, Biospherix) in order to allow media to deoxygenate. Dissolved oxygen levels were measured in the media using dissolved oxygen meter (Oakton D110).
(§2) For all viability studies, islets were stained with the following probes to determine viability status based on positive staining: Calcein Blue: live; propidium iodide: dead; and YoPro-1; apoptotic. Islet function was evaluated by looking at glucose stimulated insulin response (GSIR). Islet stimulation index (insulin release at high glucose concentration/insulin release at low glucose concentrations) or SI was calculated after insulin release was quantified using an ELISA.
About 60% and 70% of islets were alive and viable immediately after isolation and after the 24 hour culture at 20% O2, respectively. However, the proportion of live/viable islets dropped to less than 30% after 24 hour culture at 0% O2. Islets cultured for 24 hours at 0% O2 were rescued by 5 mg/ml or 10 mg/ml CPO (“POGS”) in culture media or in the culture media/PBS mixture (p<0.01 relative to 0% O2 without POGS).

islets [2] = test: Glucose-stimulated insulin release (GSIR) of islets cultured at 0% O2 with CPO; format: cell-based, Sprague Dawley Rats; conditions: added to the culture media; p<0.05
Experimental: as §1, §2
In order to be useful for diabetes treatment, the isolated islets must retain the ability to produce insulin, not just maintain viability. Thus, the insulin release characteristics of islets cultured at 0% O2 in the presence of CPO was investigated by measuring the glucose-stimulated insulin release (GSIR).

[3] = Oxygen release from POGS (dissolved oxygen in media, hypoxia chamber); format: physicochemical
Experimental: as §1
Phosphate-complexed calcium peroxide (PcCPO) was synthesized by mixing calcium peroxide (CPO) with phosphate-buffered saline at 10 mg/mL and incubating at 37° C. overnight. CP or PcCP was dissolved in a 1.5% UPLVM solution and alginate microcapsules were produced as described above. All oxygen concentration assays were performed in a controlled hypoxic chamber at 37° C. 5% CO2 0% ambient O2 to ensure that the data obtained was not confounded by changes in ambient O2 during the experiment.
[…] No islets were used in this experiment. […] When a 1:1 mixture of culture media and PBS was used, unencapsulated CPO (“PGS/PBS”) caused a rapid rise to 20% dissolved oxy gen which was sustained for at least an hour before gradually falling to 10%.

macrophages = test: Macrophage attachment to microcapsules cultured with macrophages; format: cell-based; conditions: incorporated in 2.5% UPLVM microcapsules with porcine islet cells
Experimental: Porcine islet cells were encapsulated to 2.5% UPLVM microcapsules using the methods described above. One set of microcapsules incorporated CXCL12/SLF-1 to investigate the locally immunosuppressive effects of this immunorepellant. Microcapsules were then cultured in the presence of macrophages.

[4] = PFC oxygen content and release in culture media; format: physicochemical
Experimental: (§3) Islets from Sprague Dawley rats were isolated, cultured, and assessed as described above. Three concentrations of perfluorodecalin (“PFD”) were added to the culture media: 0.1 ml PFC/ml media (“low PFC”), 0.375 ml PFC/ml media (“medium PFC”), and 0.75 ml PFC/ml media (“high PFC”).
A first experiment was performed under 20% and 0% oxygen culture conditions in the absence of islets to characterize the oxygen release rates of various PFC concentrations and under different PFC-oxygen charging conditions. […] The PFCs were charged for 15 minutes in 40% O2 prior to plating.

islets [5] = test: Effect of PFCs on islet viability in hypoxic culture; format: cell-based, Sprague Dawley rats; conditions: for Apoptotic (%) / Dead (%) / Live (%): 0% O2, 24 hours
Experimental: as §2, §3
In a second experiment, islets were plated under 0% or 20% oxygen conditions, as outlined above. Hypoxic islets were supplemented with low, medium, or high PFC levels, charged for 15 minutes in 40% O2 prior to plating. Islet viability was assessed as described above.

[6] = medium PFC 0.375 ml PFC/ml media

Molecule: [Ca+2].[O-][O-] [CPO, calcium peroxide]
Viability of islets cultured 24 hours at 0% O2 (islets [1]): rescued
Effect on reduction of GSIR in islets cultured 24 hrs at 0% O2 (islets [2]): significantly reversed this reduction
Dissolved oxygen content ([3]; unencapsulated CPO 10 mg/ml in 1:1 culture media and PBS, after gradual fall): 10%
Dissolved oxygen content ([3]; unencapsulated CPO 10 mg/ml in 1:1 culture media and PBS, rapid rise, sustained at least an hour): 20%
Dissolved oxygen content ([3]; unencapsulated CPO 10 mg/ml in culture media, hypoxia chamber, immediate and sustained): about 40%

Molecule: CXCL12/SLF-1: immunorepellant incorporated into 2.5% UPLVM microcapsules
Macrophage attachment to microcapsule (macrophages): no macrophage attachment; also recorded: observed only for the microcapsules lacking CXCL12/SLF-1

Time for oxygen content to fall from 40% to the ambient 20% ([4]; charged 15 to 90 minutes in 40% O2, added to culture media at 20% O2): ≤ 10 min
O2 release profile under hypoxic conditions ([4]; charged 15 minutes in 40% O2): prolonged O2 release profile
Molecule: FC1(F)C(F)(F)C(F)(F)C2(F)C(F)(F)C(F)(F)C(F)(F)C(F)(F)C2(F)C1(F)F (centres unmarked) [PFC, perfluorodecalin]
Apoptotic (%) (islets [5]; high PFC 0.75 ml PFC/ml media): 17.7%
Dead (%) (islets [5]; high PFC 0.75 ml PFC/ml media): 39.9%
Live (%) (islets [5]; high PFC 0.75 ml PFC/ml media): 42.3%
Apoptotic (%) (islets [5]; low PFC 0.1 ml PFC/ml media): 8.73%
Dead (%) (islets [5]; low PFC 0.1 ml PFC/ml media): 42.1%
Live (%) (islets [5]; low PFC 0.1 ml PFC/ml media): 49.2%
Apoptotic (%) (islets [5]; [6]): 0.355%
Dead (%) (islets [5]; [6]): 69.1%
Live (%) (islets [5]; [6]): 30.5%
Islet viability at 24 hours under hypoxic conditions (islets [5]; all PFC concentrations): significantly improved islet viability

Molecule: Phosphate-complexed calcium peroxide [PcCPO]
Effect on reduction of GSIR in islets cultured 24 hrs at 0% O2 (islets [2]): significantly reversed this reduction
Dissolved oxygen content versus uncomplexed CPO ([3]; encapsulated, 5 mg/ml): higher dissolved oxygen content than uncomplexed CPO
